Experimental data published in ChEMBL document CHEMBL1201862, “PubChem BioAssay data set” (2004).
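Values below derive from 48-hour exposures of cells grown in 96-well plates, with endpoints linearly interpolated between the two concentrations bracketing the appropriate inhibition level. At the GI50, growth is halved.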 Active and inactive are the calls of the source. Cut-off read from the data, not from the text of the source: active = GI50 up to about 1.1 µM and inactive = higher. Where a SMILES comes first, the peptide text is derived from it. [ ]: non-standard residue; d: D form. The star is where a group is joined. Phe(4-NO2) = N[CH](Cc1ccc([N+](=O)[O-])cc1)C(=O)O; Boc = CC(C)(C)OC(=O)*; OtBu = CC(C)(C)O*

Legend:
Test in all cases: DTP human tumour cell line panel, 48 h
A498 = system: A498
CAKI-1 = system: CAKI-1
DU-145 = system: DU-145
HCC 2998 = system: HCC 2998
HT-29 = system: HT-29
Hs-578T = system: Hs-578T
KM12 = system: KM12
M14 = system: M14
MDA-MB-231 = system: MDA-MB-231
NCI-H23 = system: NCI-H23
NCI-H522 = system: NCI-H522
OVCAR-4 = system: OVCAR-4
SF-295 = system: SF-295
SK-MEL-5 = system: SK-MEL-5
SN12C = system: SN12C
UACC-62 = system: UACC-62
DMS-114 = system: DMS-114
HOP-18 = system: HOP-18
M19-MEL = system: M19-MEL

Structure (SMILES)	GI50 (A498)	GI50 (CAKI-1)	GI50 (DU-145)	GI50 (HCC 2998)	GI50 (HT-29)	GI50 (Hs-578T)	GI50 (KM12)	GI50 (M14)	GI50 (MDA-MB-231)	GI50 (NCI-H23)	GI50 (NCI-H522)	GI50 (OVCAR-4)	GI50 (SF-295)	GI50 (SK-MEL-5)	GI50 (SN12C)	GI50 (UACC-62)	GI50 (DMS-114)	GI50 (HOP-18)	GI50 (M19-MEL)
C=CO/N=[N+](\[O-])N(CC)CC	> 100 µM (inactive)	> 100 µM (inactive)	> 100 µM (inactive)	> 100 µM (inactive)	> 100 µM (inactive)	> 100 µM (inactive)	> 100 µM (inactive)	> 100 µM (inactive)	> 100 µM (inactive)	> 100 µM (inactive)	> 100 µM (inactive)	> 100 µM (inactive)	> 100 µM (inactive)	> 100 µM (inactive)	> 100 µM (inactive)	> 100 µM (inactive)			
CC1=NN(c2nc(N)nc(CBr)n2)C(C)(C)C1	12.9 µM (inactive)	1.47 µM (inactive)	3.3 µM (inactive)	16.1 µM (inactive)	4.98 µM (inactive)	13.9 µM (inactive)	10.7 µM (inactive)	5.79 µM (inactive)	7.18 µM (inactive)	9.86 µM (inactive)	0.234 µM (active)	7.4 µM (inactive)	12.1 µM (inactive)	11.3 µM (inactive)	5.22 µM (inactive)	7.28 µM (inactive)			
CC1(C)S[C@H](c2ccccc2C(=O)O)N[C@@H]1CC(=O)O	> 100 µM (inactive)				> 100 µM (inactive)		> 100 µM (inactive)	> 100 µM (inactive)		> 100 µM (inactive)	> 100 µM (inactive)	> 100 µM (inactive)	> 100 µM (inactive)	> 100 µM (inactive)	> 100 µM (inactive)	> 100 µM (inactive)	> 100 µM (inactive)	> 100 µM (inactive)	> 100 µM (inactive)
COC(=O)C1Cc2c([nH]c3ccccc23)C(c2ccccc2O)N1 (stereo not given)	21.3 µM (inactive)	98.6 µM (inactive)		60.1 µM (inactive)	44.9 µM (inactive)		60.3 µM (inactive)	93.8 µM (inactive)		52 µM (inactive)	32.4 µM (inactive)	53.5 µM (inactive)	78.5 µM (inactive)	59 µM (inactive)	55.2 µM (inactive)	35.4 µM (inactive)	58.1 µM (inactive)	> 100 µM (inactive)	
COc1cccc(C2CC(C)(N3CCCC3)Oc3cc4c(cc32)OCO4)c1O (stereo not given)	28.3 µM (inactive)	31.7 µM (inactive)	32 µM (inactive)	23 µM (inactive)	19.1 µM (inactive)	21.5 µM (inactive)	22 µM (inactive)	17.3 µM (inactive)	19.1 µM (inactive)	27.4 µM (inactive)	19.1 µM (inactive)	48.1 µM (inactive)	22.1 µM (inactive)	12.4 µM (inactive)	25.6 µM (inactive)	22.1 µM (inactive)			
O=C(c1ccccc1)C1CCCCN1C(=O)c1ccccc1 (stereo not given)	> 100 µM (inactive)	> 100 µM (inactive)		> 100 µM (inactive)			> 100 µM (inactive)	> 100 µM (inactive)			> 100 µM (inactive)	> 100 µM (inactive)		> 100 µM (inactive)	> 100 µM (inactive)	25.7 µM (inactive)	> 100 µM (inactive)	> 100 µM (inactive)	> 100 µM (inactive)
O=C1c2ccccc2N2OC3C4CCC(C4)C3C12c1ccccc1 (stereo not given)	> 100 µM (inactive)			> 100 µM (inactive)	61.4 µM (inactive)			92.5 µM (inactive)		94.6 µM (inactive)	36 µM (inactive)	> 100 µM (inactive)	> 100 µM (inactive)	60.8 µM (inactive)	86.9 µM (inactive)	93.8 µM (inactive)	62.5 µM (inactive)	> 100 µM (inactive)	93.1 µM (inactive)
COc1ccc(/C=N/N=C(\N)NO)c(O)c1	8.77 µM (inactive)	4.11 µM (inactive)	> 10 µM (inactive)	> 10 µM (inactive)	5.66 µM (inactive)	> 10 µM (inactive)	4.57 µM (inactive)	5.01 µM (inactive)	> 10 µM (inactive)	> 10 µM (inactive)	> 10 µM (inactive)	> 10 µM (inactive)	> 10 µM (inactive)	3.53 µM (inactive)	8.53 µM (inactive)	4.53 µM (inactive)			
CC(C)(C)OC(=O)N1N=NC2C3OC(CC3=O)C21 (stereo not given)	> 100 µM (inactive)	> 100 µM (inactive)		> 100 µM (inactive)	> 100 µM (inactive)		> 10 µM (inactive)	> 100 µM (inactive)		> 100 µM (inactive)	> 100 µM (inactive)	> 10 µM (inactive)	> 10 µM (inactive)	> 10 µM (inactive)	> 100 µM (inactive)	> 100 µM (inactive)	> 100 µM (inactive)	> 100 µM (inactive)	
CC(C)/C(Cl)=N/OC(=O)Nc1ccc(Br)cc1	18.4 µM (inactive)	1.73 µM (inactive)	13.7 µM (inactive)	15.5 µM (inactive)	5.83 µM (inactive)	21.7 µM (inactive)	12.9 µM (inactive)	2.78 µM (inactive)	16.1 µM (inactive)	13.3 µM (inactive)	1.52 µM (inactive)	12.7 µM (inactive)	15.2 µM (inactive)	12.9 µM (inactive)	2.16 µM (inactive)	3.82 µM (inactive)			
COc1ccc(NC(=O)Oc2cc(C)c3ccc(=O)cc-3o2)c(OC)c1.COc1ccc(NC(=O)Oc2ccc3c(C)cc(=O)oc3c2)c(OC)c1	31.9 µM (inactive)	> 100 µM (inactive)	> 100 µM (inactive)	82.8 µM (inactive)	> 100 µM (inactive)	> 100 µM (inactive)	78.7 µM (inactive)	> 100 µM (inactive)	> 100 µM (inactive)	> 100 µM (inactive)	> 100 µM (inactive)	69.8 µM (inactive)	> 100 µM (inactive)	> 100 µM (inactive)	> 100 µM (inactive)	> 100 µM (inactive)			
C=CCSC1=N/C(=C\c2ccc(C)cc2)C(=O)N1CC=C	13.6 µM (inactive)	80 µM (inactive)	20.7 µM (inactive)	23.8 µM (inactive)	13.9 µM (inactive)	54.8 µM (inactive)	23.7 µM (inactive)	29 µM (inactive)	90.4 µM (inactive)	32.7 µM (inactive)	26.7 µM (inactive)	27.3 µM (inactive)	43.5 µM (inactive)	14.3 µM (inactive)	12.7 µM (inactive)	32.3 µM (inactive)			
NC(=S)NS(=O)(=O)c1ccc(F)cc1F	> 100 µM (inactive)	> 100 µM (inactive)	> 100 µM (inactive)	> 100 µM (inactive)	> 100 µM (inactive)	> 100 µM (inactive)	> 100 µM (inactive)	> 100 µM (inactive)	> 100 µM (inactive)	> 100 µM (inactive)	> 100 µM (inactive)	> 100 µM (inactive)	> 100 µM (inactive)	> 100 µM (inactive)	> 100 µM (inactive)	> 100 µM (inactive)			
CN1Cc2ccccc2/C=C\c2ccccc21	69.5 µM (inactive)	40.9 µM (inactive)	> 100 µM (inactive)	47.9 µM (inactive)	28.1 µM (inactive)	44.8 µM (inactive)	52.4 µM (inactive)	46.8 µM (inactive)	96.2 µM (inactive)	62.1 µM (inactive)	37.5 µM (inactive)	38.5 µM (inactive)	62.7 µM (inactive)	40.2 µM (inactive)	83.4 µM (inactive)	60.8 µM (inactive)			
COC(=O)[C@@]12C3=NO[C@]1(C(=O)OC)C(O[Si](C)(C)C(C)(C)C)[C@H]1OC(C)(C)O[C@H]1[C@@H]2C(OCc1ccccc1)CC3 (stereo not given in full)	38.3 µM (inactive)			63.1 µM (inactive)	67.3 µM (inactive)		28.3 µM (inactive)	26.9 µM (inactive)		80.4 µM (inactive)		22.3 µM (inactive)	37.3 µM (inactive)	35.1 µM (inactive)	89.7 µM (inactive)	41.7 µM (inactive)	36.6 µM (inactive)	> 100 µM (inactive)	71.8 µM (inactive)
C[N+]1(CCC[N+]2(C)CC3C4C=CC(CC4)C3C2)CCOCC1 (stereo not given)	> 100 µM (inactive)	> 100 µM (inactive)	> 100 µM (inactive)	86.7 µM (inactive)	> 100 µM (inactive)	> 100 µM (inactive)	> 100 µM (inactive)	> 100 µM (inactive)	> 100 µM (inactive)	> 100 µM (inactive)	> 100 µM (inactive)	> 100 µM (inactive)	> 100 µM (inactive)	18.5 µM (inactive)	> 100 µM (inactive)	> 100 µM (inactive)			
Cn1cnc([N+](=O)[O-])c1Sc1nc2ccccc2s1		1.57 µM (inactive)		10.2 µM (inactive)	13.3 µM (inactive)		15.1 µM (inactive)	15.2 µM (inactive)		10.9 µM (inactive)		3.01 µM (inactive)	20.8 µM (inactive)	13.7 µM (inactive)	4.33 µM (inactive)	11.9 µM (inactive)	3.9 µM (inactive)	0.286 µM (active)	11.5 µM (inactive)
COC(=O)C(Cc1ccc([N+](=O)[O-])cc1)NC(=O)C(CC(=O)OC(C)(C)C)NC(=O)OC(C)(C)C (stereo not given) (Boc-Asp(OtBu)-[Phe(4-NO2)]-OMe; configuration not given here)	> 100 µM (inactive)	> 100 µM (inactive)	> 100 µM (inactive)	35.2 µM (inactive)	> 100 µM (inactive)	20.1 µM (inactive)	> 100 µM (inactive)	29.4 µM (inactive)	25.8 µM (inactive)	> 100 µM (inactive)	63.5 µM (inactive)	38.4 µM (inactive)	> 100 µM (inactive)	> 100 µM (inactive)	> 100 µM (inactive)	> 100 µM (inactive)			
